What was measured:
barnyardgrass [1] = test: Test B flooded paddy test; assay type: in vivo, Echinochloa crus-galli; conditions: 500 g ai/ha, Flood; scale of 0 to 100 where 0 is no effect and 100 is complete control
Summary of the method: (§1)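 Treatment was made at the 2-leaf stage by dosing the standing floodwater, kept 3 cm above soil level for the whole test. Greenhouse exposure lasted 13 to 15 days. Response is a visual percent rating relative to controls, where a dash indicates no test result.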

rice = test: Test B flooded paddy test; assay type: in vivo, Oryza sativa; conditions: 500 g ai/ha, Flood; scale of 0 to 100 where 0 is no effect and 100 is complete control
Summary of the method: as §1

giant foxtail = test: Test A pre-/postemergence herbicide test; assay type: in vivo, Setaria faberii
Summary of the method: (§2)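 Formulated compound (non-phytotoxic solvent, surfactant) sprayed pre- onto soil of seeded loam/sand pots or post- onto seedlings at 1–2 leaves; ~10 d greenhouse; 0–100 visual control rating versus untreated.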

galium = test: Test A postemergence herbicide test; assay type: in vivo, Galium aparine
Summary of the method: (§3)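 Young potted plants in a loam–sand mix, one- to two-leaf stage and 2–10 cm tall, receive the test chemical postemergence and stay in a greenhouse for approximately 10 days. Injury is then judged by eye against untreated plants, scored 0 (none) to 100 (complete control).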

ryegrass, Italian = test: Test A pre-/postemergence herbicide test; assay type: in vivo, Lolium multiflorum
Summary of the method: as §2

corn = test: Test A pre-/postemergence herbicide test; assay type: in vivo, Zea mays; conditions: Postemergence
Summary of the method: as §2

wheat = test: Test A pre-/postemergence herbicide test; assay type: in vivo, Triticum aestivum; conditions: Postemergence
Summary of the method: as §2

ragweed = test: Test A pre-/postemergence herbicide test; assay type: in vivo, Ambrosia elatior
Summary of the method: as §2

kochia = test: Test A pre-/postemergence herbicide test; assay type: in vivo, Kochia scoparia
Summary of the method: as §2

pigweed = test: Test A pre-/postemergence herbicide test; assay type: in vivo, Amaranthus retroflexus
Summary of the method: as §2

barnyardgrass [2] = test: Test A pre-/postemergence herbicide test; assay type: in vivo, Echinochloa crus-galli
Summary of the method: as §2

blackgrass = test: Test A postemergence herbicide test; assay type: in vivo, Alopecurus myosuroides
Summary of the method: as §3

sedge, umbrella = test: Test B flooded paddy test; assay type: in vivo, Cyperus difformis; conditions: 500 g ai/ha, Flood; scale of 0 to 100 where 0 is no effect and 100 is complete control
Summary of the method: as §1

ducksalad = test: Test B flooded paddy test; assay type: in vivo, Heteranthera limosa; conditions: 500 g ai/ha, Flood; scale of 0 to 100 where 0 is no effect and 100 is complete control
Summary of the method: as §1

[3] = Postemergence, 125 g ai/ha, visual rating on 0 to 100 scale (0 no effect, 100 complete control), approx. 10 days
[4] = Postemergence, 500 g ai/ha, 0 to 100 scale (0 no effect, 100 complete control)
[5] = Preemergence, 125 g ai/ha, 0 to 100 scale where 0 is no effect and 100 is complete control
[6] = preemergence, 500 g ai/ha, 0 to 100 scale, 0 is no effect and 100 is complete control
[7] = 125 g ai/ha, visual rating on 0 to 100 scale (0 no effect, 100 complete control), approx. 10 days
[8] = 500 g ai/ha, 0 to 100 scale (0 no effect, 100 complete control)
[9] = Preemergence, 500 g ai/ha, visual rating on 0 to 100 scale (0 no effect, 100 complete control)

SMILES	Plant response rating, Barnyardgrass (barnyardgrass [1])	Plant response rating, Rice (rice)	Plant response rating, Foxtail, Giant (giant foxtail; [3])	Plant response rating, Foxtail, Giant (giant foxtail; [4])	Plant response rating, Foxtail, Giant (giant foxtail; [5])	Plant response rating, Foxtail, Giant (giant foxtail; [6])	Plant response rating, Galium (galium; [7])	Plant response rating, Galium (galium; [8])	Plant response rating, Ryegrass, Italian (ryegrass, Italian; [3])	Plant response rating, Ryegrass, Italian (ryegrass, Italian; [4])	Plant response rating, Ryegrass, Italian (ryegrass, Italian; [5])	Ryegrass, Italian plant response rating (ryegrass, Italian; [9])	Plant response rating, Corn (corn; [7])	Plant response rating, Corn (corn; [8])	Plant response rating, Wheat (wheat; [7])	Plant response rating, Wheat (wheat; [8])	Plant response rating, Ragweed (ragweed; [3])	Plant response rating, Ragweed (ragweed; [4])	Plant response rating, Ragweed (ragweed; [5])	Plant response rating, Ragweed (ragweed; [6])	also measured
O=C1NCC(c2cc3ccccc3s2)C1C(=O)Nc1ccccc1F (stereo not drawn) [Compound 295]	30	0	0	0	0	20	0	10	0	0	0	0	0	0	0	0	0	0	0	0	Plant response rating, Kochia (kochia; [3]): 0; Plant response rating, Kochia (kochia; [4]): 0; Plant response rating, Kochia (kochia; [5]): 0; Plant response rating, Kochia (kochia; [6]): 0; Plant response rating, Pigweed (pigweed; [3]): 0; Plant response rating, Pigweed (pigweed; [4]): 0; Plant response rating, Pigweed (pigweed; [5]): 0; Plant response rating, Pigweed (pigweed; [6]): 0; Plant response rating, Barnyardgrass (barnyardgrass [2]; [3]): 0; Plant response rating, Barnyardgrass (barnyardgrass [2]; [4]): 50; Plant response rating, Barnyardgrass (barnyardgrass [2]; [5]): 0; Plant response rating, Barnyardgrass (barnyardgrass [2]; [6]): 70; Plant response rating, Blackgrass (blackgrass; [7]): 0; Plant response rating, Blackgrass (blackgrass; [8]): 0; Plant response rating, Sedge, Umbrella (sedge, umbrella): 0; Plant response rating, Ducksalad (ducksalad): 40
O=C1NCC(c2cc3ccccc3s2)C1C(=O)Nc1cccc(F)c1F (stereo not drawn) [Compound 296]	30	0	0	0	0	0	0	0	0	0	0	0	0	0	0	0	0	0	0	0	Plant response rating, Kochia (kochia; [3]): 0; Plant response rating, Kochia (kochia; [4]): 0; Plant response rating, Kochia (kochia; [5]): 0; Plant response rating, Kochia (kochia; [6]): 0; Plant response rating, Pigweed (pigweed; [3]): 0; Plant response rating, Pigweed (pigweed; [4]): 0; Plant response rating, Pigweed (pigweed; [5]): 0; Plant response rating, Pigweed (pigweed; [6]): 0; Plant response rating, Barnyardgrass (barnyardgrass [2]; [3]): 0; Plant response rating, Barnyardgrass (barnyardgrass [2]; [4]): 20; Plant response rating, Barnyardgrass (barnyardgrass [2]; [5]): 0; Plant response rating, Barnyardgrass (barnyardgrass [2]; [6]): 0; Plant response rating, Blackgrass (blackgrass; [7]): 0; Plant response rating, Blackgrass (blackgrass; [8]): 0; Plant response rating, Sedge, Umbrella (sedge, umbrella): 0; Plant response rating, Ducksalad (ducksalad): 60
O=C1NCC(c2cc3ccccc3s2)C1C(=O)Nc1ccccc1C(F)(F)F (stereo not drawn) [Compound 297]	0	0	0	0	30	70	0	0	0	0	0	0	0	0	0	0	0	0	0	0	Plant response rating, Kochia (kochia; [3]): 0; Plant response rating, Kochia (kochia; [4]): 0; Plant response rating, Kochia (kochia; [5]): 0; Plant response rating, Kochia (kochia; [6]): 0; Plant response rating, Pigweed (pigweed; [3]): 0; Plant response rating, Pigweed (pigweed; [4]): 0; Plant response rating, Pigweed (pigweed; [5]): 0; Plant response rating, Pigweed (pigweed; [6]): 0; Plant response rating, Barnyardgrass (barnyardgrass [2]; [3]): 0; Plant response rating, Barnyardgrass (barnyardgrass [2]; [4]): 0; Plant response rating, Barnyardgrass (barnyardgrass [2]; [5]): 0; Plant response rating, Barnyardgrass (barnyardgrass [2]; [6]): 50; Plant response rating, Blackgrass (blackgrass; [7]): 0; Plant response rating, Blackgrass (blackgrass; [8]): 10; Plant response rating, Sedge, Umbrella (sedge, umbrella): 0; Plant response rating, Ducksalad (ducksalad): 0
O=C1NCC(c2cnn(CC(F)(F)F)c2)C1C(=O)Nc1cccc(F)c1F (stereo not drawn) [Compound 299]	30	0	0	50	50	80	0	0	0	0	0	0	0	0	0	0	0	0	0	0	Plant response rating, Kochia (kochia; [3]): 0; Plant response rating, Kochia (kochia; [4]): 0; Plant response rating, Kochia (kochia; [5]): 0; Plant response rating, Kochia (kochia; [6]): 0; Plant response rating, Pigweed (pigweed; [3]): 0; Plant response rating, Pigweed (pigweed; [4]): 0; Plant response rating, Pigweed (pigweed; [5]): 0; Plant response rating, Pigweed (pigweed; [6]): 0; Plant response rating, Barnyardgrass (barnyardgrass [2]; [3]): 30; Plant response rating, Barnyardgrass (barnyardgrass [2]; [4]): 70; Plant response rating, Barnyardgrass (barnyardgrass [2]; [5]): 10; Plant response rating, Barnyardgrass (barnyardgrass [2]; [6]): 70; Plant response rating, Blackgrass (blackgrass; [7]): 0; Plant response rating, Blackgrass (blackgrass; [8]): 0; Plant response rating, Sedge, Umbrella (sedge, umbrella): 0; Plant response rating, Ducksalad (ducksalad): 50

— patent publication US10294202B2, “Pyrrolidinones as herbicides” (FMC Corporation, priority 2013, dated 2019)
